Measurements: patent US8828724B2, “Method for preparing cells for engraftment” (Institut National de la Sante et de la Recherche Medicale …, priority 2007, dated 2014)
Peptide text beside a SMILES is read from it.

What was measured:
BM-MNC [1] = assay: Apoptosis evaluation via observation of nuclear morphology; assay type: cell-based, mouse; conditions: 100 μM, pre-treated or continued presence, 5 days of culture, FIG. 13
Method: BM-MNC were grown onto gelatin/vitronectin matrix for 5 days in EBM in the continued presence of TSP1 or the 4N1-1 and 4N1-2 peptides, or treated for the last 24 h only. […] Non adherent cells were eliminated and adherent cells fixed with PBS-PFA 4% followed by addition of DAPI (Di-aminidophenylindol, 0.01 mg/ml) that becomes fluorescent after integration between DNA bases. […] Experiments were repeated at least three times.
After observing increased BM-MNC adhesion following treatment with peptide 4N1-1, the inventors examined the extent of apoptosis triggered by peptide 4N1-1.

BM-MNC [2] = assay: Apoptosis evaluation via quantification of intact DNA content; assay type: cell-based; conditions: 50 μM for 10 or 120 min, culture up to 24 hours, FIG. 29
Method: BM-MNC were isolated and treated with 4N1-1 peptide for 10 or 120 min, washed with PBS and cultured in EBM onto gelatin/vitronectin matrix for up to 24 hours. Untreated fresh cells served as control for live cells. […] After treatment and culture, non adherent and adherent cells were harvested and analyzed separately, fixed with ice-cold ethanol 70% in PBS, and incubated for 45 min in PBS containing Triton X-100 (0.05%), propidium iodide (PI; 50 μg/ml) and RNase-A (100 μg/ml). PI becomes fluorescent after integration between DNA bases. […] Experiments were repeated three times.
The inventors examined the extent of apoptosis in BM-MNC treated with peptide 4N1-1 and 4N1-2, using a second method. BM-MNC were pre-treated with 4N1-1 or 4N1-2 (50 μM) for 10 or 120 min, and cultured in full EBM2 medium, with serum and growth factors for up to 24 hours, to allow potential apoptotic reactions to proceed (FIG. 29). […] After culture, adherent and non-adherent cells were harvested and analyzed separately.

BM-MNC [3] = assay: BM-MNC adhesion onto gelatin/vitronectin or fibrin gels for 30 min after pre-treatment; assay type: cell-based, mouse; conditions: 2 h pre-treatment
Method: Tibias, femurs and humerus of C57BL/6 male mice were carefully dissected, bone marrow was extracted and dissociated, and bone marrow mononuclear cells (BM-MNC) were separated by differential centrifugation on Ficoll gradients (Histopaque-1083, Sigma), (2,000 r.p.m, 25 min). BM-MNC were then washed with PBS and pelleted (2,000 r.p.m, 10 min).
(§1) To evaluate the effects of TSP1 or peptides derived from its carboxyterminal sequence, 4N1-1 and 4N1-2, on cell adhesion onto gelatin/vitronectin, fibrin gels or activated SVEC monolayers, 2.10^6/ml BM-MNC or PBMC, or 10^6/ml HUCB-EPC were pretreated for 2 h at 37° C. in an incubator with 5% CO2, in the presence of TSP1 ([…]), or the 4N1-1 or 4N1-2 peptides (100 μM), or control BSA (1%), or with mouse monoclonal anti-human CD47 IgG1 B6H12 (40 μg/ml), or matched control isotype mouse IgG1 (40 μg/ml), before PBS washes and culture for the specified length of time. For adhesion experiments, supernatants were removed, adherent cells were gently washed with PBS. The number of adherent cells per high power field was counted in 3 to 5 fields per well using an inverted phase-contrast microscope at high magnification (×400).
(§2) Mouse BM-MNC and HUCB-EPC adhesion was evaluated in vitro. The effects of purified or recombinant platelet proteins, or peptide agonists of the CD47/IAP receptor was characterized. Two main approaches were used: • 1. Pre-incubation of the cells with platelet proteins for 2 h before measuring their adhesion on gelatin/vitronectin control matrix or fibrin gels for 30 min. • 2. Cell adhesion on gelatin/vitronectin control matrix or fibrin gels for 16 h in the presence of platelet proteins in solution.

[4] = systemic injection of significant doses; cited from earlier work
BM-MNC [5] = assay: BM-MNC adhesion onto interleukin-1β-pre-activated murine endothelial monolayers; assay type: cell-based, mouse; conditions: 2 h pre-treatment; TSP1 10 μg/ml, 4N1-1 100 μM; 30 min adhesion, FIG. 9
Method: SV40-transformed mouse lymph node endothelial cells (SVEC from ATCC), were grown in Dulbecco's Modified Eagle Medium (DMEM) supplemented with 20% FCS in 24 well plaques until they reached full confluency (7 days). SVEC monolayers were activated with 5 nM murine interleukin-1β (Calbiochem) for 2 h prior to cell-cell adhesion experiments.
as §1
BM-MNC were pre-treated for 2 h with recombinant or purified human TSP1 (10 μg/ml), or with peptide 4N1-1 (100 μM), and measured their adhesion after 30 min onto interleukin-1β-pre-activated murine endothelial monolayers. […]

HUCB-EPC = HUCB-EPC adhesion onto gelatin/vitronectin or fibrin gels for 15 min after pre-treatment; assay type: cell-based, Human; conditions: 2 h pre-treatment, 15 min adhesion, FIG. 8
Method: Human umbilical cord blood (30-50 ml) was collected in sterile tubes containing heparin (15 UI/ml, Sanofi) following standard protocols in agreement with Hôpital Lariboisiére and Inserm ethical guidelines. PBMC were isolated via Ficoll gradient centrifugation (Histopaque-1077, Dominique Dutscher). To eliminate mature endothelial cells, mononuclear cells were seeded (6.10^6 cells/ml) in culture dishes (100×20 mm) at 37° C. with 5% CO2 for 16 h. Adherent cells were eliminated. Non-adherent cells were cultured and differentiated into Human umbilical cord blood-derived endothelial progenitor cells (HUCB-EPC) in 6-well plates (10^7 cells/well) on collagen type 1 matrix (Coll1; 90 μg/ml, Sigma) in M199 growth medium (Gibco) complete with L-glutamine, HEPES buffer (25 mM; Eurobio), antibiotics and antimycotics (penicillin 10000 units/ml, streptomycin 10,000 μg/ml, fongizone 25 μg/ml) and 20% FCS (Dominique Dutscher), as well as 10 ng/ml VEGF (R&D Systems).
as §1

BM-MNC [6] = assay: Endothelial differentiation of BM-MNC (Dil-Ac-LDL / BS1-lectin double labelling); assay type: cell-based, mouse; conditions: 2 h pre-treatment, 5 days culture, FIG. 12
Method: BM-MNC were cultured onto gelatin/vitronectin in EBM medium for 5 days. After eliminating non adherent cells, EPC were identified through double-labelling for two endothelial characteristics: incorporation of Dil-labelled acetylated low density lipoproteins (Dil-Ac-LDL; 1 μg/ml, BioHarbor Products; red fluorescence) and binding of FITC-labelled BS1-lectin (1 μg/ml, Sigma; green fluorescence). Double fluorescence allowed the microscopic identification and counting of EPC in 3 to 5 fields per well (400× magnification). Experiments were repeated at least three times, and results expressed as percentages of EPC.
Following the previous observation that TSP1 and peptide 4N1-1 stimulate BM-MNC adhesion in vitro, the inventors measured the endothelial differentiation of treated BM-MNC. BM-MNC were cultured for 5 days, following a 2 h pre-treatment with recombinant or purified TSP1, or with peptides 4N1-1, 4N1-2, or CSVTCG (a peptide derived from the TSP1 sequence). EPC-differentiated BM-MNC were identified by fluorescence microscopy after double-labelling for Dil-Ac-LDL incorporation and BS1 lectin binding.

BM-MNC [7] = assay: BM-MNC adhesion onto gelatin/vitronectin for 16 h with proteins in solution; assay type: cell-based, mouse; conditions: 16 h in presence of 100 μg/ml, FIG. 3
Method: as §2
BM-MNC were incubated for 16 h on gelatin/vitronectin matrix in the presence of PPP, recombinant TSP1 (100 μg/ml), or peptide 4N1-1 (100 μM) before adhesion was quantified through direct cell counts by phase-contrast microscopy. As reported in FIG. 3, TSP1 stimulated adhesion by over three fold compared to the gelatin/vitronectin control (+206.8%, p<0.05).

[8] = 30 min adhesion, gelatin/vitronectin, FIG. 26
[9] = BM-MNC, 30 min adhesion, FIG. 1

For `CSCC[C@H](NC(=O)[C@@H](NC(=O)[C@@H](NC(=O)[C@H](Cc1ccc(O)cc1)NC(=O)[C@H](Cc1ccccc1)NC(=O)[C@@H](N)CCCNC(=N)N)C(C)C)C(C)C)C(=O)N[C@@H](Cc1c[nH]c2ccccc12)C(=O)N[C@@H](CCCCN)C(=O)O` [4N1-1], which “apoptosis compared to BSA” value (BM-MNC [1]) is on record?
The value was “did not stimulate apoptosis significantly”.

For `CSCC[C@H](NC(=O)[C@@H](NC(=O)[C@@H](NC(=O)[C@H](Cc1ccc(O)cc1)NC(=O)[C@H](Cc1ccccc1)NC(=O)[C@@H](N)CCCNC(=N)N)C(C)C)C(C)C)C(=O)O` [4N1-2, RFYVVM, reference compound] (H-RFYVVM-OH), which “apoptosis compared to staurosporine or control, adherent and non-adherent cells” value (BM-MNC [2]) is on record?
Its value is “did not stimulate apoptosis significantly”.

And the “apoptosis compared to BSA” value (BM-MNC [1])?
Its value is “did not stimulate apoptosis significantly”.

For “CSVTCG (TSP-1 fragment) [reference compound]”, which “inhibition of adhesion compared with BSA” value (BM-MNC [3]; 30 min adhesion, gelatin/vitronectin, FIG. 7) is on record?
The value was 21%.

Which “modulation of BM-MNC adhesion compared with BSA” value (“modulation … compared with BSA” below) (BM-MNC [3]; [8]) does the source give for “FIRGGMYEGKK (7NGG) [mutated 7N3, reference compound]” here?
The value was “no significant modulation”.

For FIRVVMYEGKK (7N3 peptide), which “modulation … compared with BSA” value (BM-MNC [3]; [8]) is on record?
The value was “stimulated BM-MNC adhesion significantly”.

For KRFYVVMWKK (4N1K peptide), which gross coagulation parameters [4] is on record?
Its gross coagulation parameters is “does not modulate gross coagulation parameters”.

What about the lethality [4] of the same molecule?
Its lethality is “not lethal”.

Which “modulation … compared with BSA” value (BM-MNC [3]; [8]) does the source give for “RFYGGMWK (4NGG) [mutated 4N1-1, reference compound]” here?
The value was “no significant modulation”.

With “TSP1: recombinant or purified Thrombospondin-1, not specified which at b144” as the molecule, how does the “stimulation of adhesion on fibrin compared with BSA” value (BM-MNC [3]; [9]) read?
The value was “+74.0%”.

What about the “stimulation of adhesion onto gelatin/vitronectin compared with BSA” value (BM-MNC [3]; [9]) of the same molecule?
Its value is “+160.6%”.

Which “modulation … compared with BSA” value (BM-MNC [3]; SDF1 100 ng/ml, EphB2-Fc 3 μg/ml, EBM2 50%, leptin 100 ng/ml, gelatin/vitronectin 30 min, FIG. 27) does the source give for “leptin: recombinant human leptin (Biovision)” here?
The value was “moderate increase”.

What does the source list for “purified TSP1: Human purified Thrombospondin-1 prepared at Inserm Unit U553”?
stimulation of BM-MNC adhesion onto gelatin/vitronectin compared with BSA (BM-MNC [3]; 30 min adhesion, FIG. 7): +143.8%; stimulation of adhesion onto endothelial monolayers compared with BSA (BM-MNC [5]): +40.5%; stimulation of HUCB-EPC adhesion onto fibrin compared with BSA (HUCB-EPC): +33.3%; stimulation of HUCB-EPC adhesion onto gelatin-vitronectin compared with BSA (HUCB-EPC): +52.5%; stimulation of endothelial differentiation vs BSA (BM-MNC [6]): +28.9%

With “recombinant TSP1: Human recombinant Thrombospondin-1 produced by EMP-Genetech” as the molecule, how does the “concentration at which maximal stimulation of adhesion was reached” value (BM-MNC [3]; 30 min adhesion, FIG. 2) read?
The value was 20 µg/mL.

What about the “concentration from which adhesion onto gelatin/vitronectin was stimulated significantly” value (BM-MNC [3]; 30 min adhesion, FIG. 2) of the same molecule?
Its value is no less than 5 µg/mL.

And the “stimulation of BM-MNC adhesion onto gelatin/vitronectin compared with BSA” value (BM-MNC [3]; 30 min adhesion, FIG. 7)?
Its value is “+65.6%”.

What about the “maximal stimulation of adhesion onto gelatin/vitronectin compared with BSA” value (BM-MNC [3]; at 20 μg/ml, FIG. 2) of the same molecule?
The value was “+179.3%”.

What about the “stimulation of adhesion onto endothelial monolayers compared with BSA” value (BM-MNC [5]) of the same molecule?
Its value is “+34.2%”.

And the “stimulation of HUCB-EPC adhesion onto fibrin compared with BSA” value (HUCB-EPC)?
Its value is “+37.6%”.

And the “stimulation of HUCB-EPC adhesion onto gelatin-vitronectin compared with BSA” value (HUCB-EPC)?
The value was “+106.3%”.

And the “stimulation of adhesion compared to the gelatin/vitronectin control” value (BM-MNC [7])?
Its value is “+206.8%”.

What about the “stimulation of endothelial differentiation vs BSA” value (BM-MNC [6]) of the same molecule?
The value was “+28.0%”.
